Measurements as given in US4015974A, “Amido phosphorothiolates” (priority 1972, dated 1977).

Legend:
Assay type in all cases: in vivo
rice = experiment: Water application, phytotoxicity on rice (Table 2); design: key: 0: no effect; 1: very slightly affected; 2: slightly affected; 3: moderately affected; 4: considerably affected; 5: completely killed; details: 25 days, score 0-5
Summary of the method: (§1)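 Ratings on a 0–5 scale taken 25 days post-treatment for rice injury, barnyard grass, and naturally emerging monochoria, false pimpernel and toothcup. Compounds as wettable powder went onto waterlogged paddy soil holding rice seedlings transplanted at 3 leaves and barnyard grass seed.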

[1] = test system: large crabgrass (Digitaria sanguinalis); experiment: Pre-emergence application, herbicidal effect on large crabgrass (Table 1); design: key: 0: not damaged; 5: completely killed; details: 20 days after application, score 0-5
Summary of the method: (§2)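 Compounds, formulated as water-diluted wettable powder, were applied to the soil surface after sowing and covering the seeds in pots of about 10 cm. Effects were rated on a 0 (no damage) to 5 (complete kill) scale after 20 days of greenhouse growth.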

[2] = test system: barnyard grass (Echinochloa crus-galli); experiment: Water application, herbicidal effect on barnyard grass (Table 2); design: key: 0: not damaged; 5: completely killed; details: 25 days, score 0-5
Summary of the method: as §1

[3] = test system: common purslane (Portulaca oleracea); experiment: Pre-emergence application, herbicidal effect on common purslane (Table 1); design: key: 0: not damaged; 5: completely killed; details: 20 days after application, score 0-5
Summary of the method: as §2

[4] = test system: common lambsquarter (Chenopodium album); experiment: Pre-emergence application, herbicidal effect on common lambsquarter (Table 1); design: key: 0: not damaged; 5: completely killed; details: 20 days after application, score 0-5
Summary of the method: as §2

[5] = test system: redroot pigweed (Amaranthus retroflexus); experiment: Pre-emergence application, herbicidal effect on redroot pigweed (Table 1); design: key: 0: not damaged; 5: completely killed; details: 20 days after application, score 0-5
Summary of the method: as §2

[6] = test system: broad-leaved weeds, e.g., monochoria, false pimpernel and toothcup; experiment: Water application, herbicidal effect on broad-leaved weeds (Table 2); design: key: 0: not damaged; 5: completely killed; details: 25 days, score 0-5
Summary of the method: as §1

[7] = test system: barnyard grass (Echinochloa crus-galli); experiment: Pre-emergence application, herbicidal effect on barnyard grass (Table 1); design: key: 0: not damaged; 5: completely killed; details: 20 days after application, score 0-5
Summary of the method: as §2

radish = experiment: Pre-emergence application, herbicidal effect on radish (Table 1); design: key: 0: not damaged; 5: completely killed; details: 20 days after application, score 0-5
Summary of the method: as §2

Structure (SMILES): CCOP(=O)(SCCC(C)C)SCC(=O)N1CCCC(C)C1 (stereo not drawn) [Compound 73]
- Phytotoxicity on rice (rice; 10 g/a): 0
- Phytotoxicity on rice (rice; 20 g/a): 0
- Phytotoxicity on rice (rice; 40 g/a): 0
- Herbicidal effect, large crabgrass ([1]; 10 g./a.): 5
- Herbicidal effect, large crabgrass ([1]; 20 g./a.): 5
- Herbicidal effect, large crabgrass ([1]; 40 g./a.): 5
- Herbicidal effects, barnyard grass ([2]; 10 g/a): 5
- Herbicidal effects, barnyard grass ([2]; 20 g/a): 5
- Herbicidal effects, barnyard grass ([2]; 40 g/a): 5
- Herbicidal effect, common purslane ([3]; 10 g./a.): 4
- Herbicidal effect, common purslane ([3]; 20 g./a.): 4
- Herbicidal effect, common purslane ([3]; 40 g./a.): 5
- Herbicidal effect, common lambsquarter ([4]; 10 g./a.): 4
- Herbicidal effect, common lambsquarter ([4]; 20 g./a.): 4
- Herbicidal effect, common lambsquarter ([4]; 40 g./a.): 5
- Herbicidal effect, redroot pigweed ([5]; 10 g./a.): 4
- Herbicidal effect, redroot pigweed ([5]; 20 g./a.): 4
- Herbicidal effect, redroot pigweed ([5]; 40 g./a.): 5
- Herbicidal effects, broad-leaved weeds ([6]; 10 g/a): 5
- Herbicidal effects, broad-leaved weeds ([6]; 20 g/a): 5
- Herbicidal effects, broad-leaved weeds ([6]; 40 g/a): 5
- Herbicidal effect, barnyard grass ([7]; 10 g./a.): 5
- Herbicidal effect, barnyard grass ([7]; 20 g./a.): 5
- Herbicidal effect, barnyard grass ([7]; 40 g./a.): 5
- Herbicidal effect, radish (radish; 10 g./a.): 0
- Herbicidal effect, radish (radish; 20 g./a.): 0
- Herbicidal effect, radish (radish; 40 g./a.): 0

Structure (SMILES): CCOP(=O)(SCC)SCC(=O)N1CCCCC1C (stereo not drawn) [Compound 1]
- Phytotoxicity on rice (rice; 10 g/a): 0
- Phytotoxicity on rice (rice; 20 g/a): 0
- Phytotoxicity on rice (rice; 40 g/a): 0
- Herbicidal effect, large crabgrass ([1]; 10 g./a.): 5
- Herbicidal effect, large crabgrass ([1]; 20 g./a.): 5
- Herbicidal effect, large crabgrass ([1]; 40 g./a.): 5
- Herbicidal effects, barnyard grass ([2]; 10 g/a): 5
- Herbicidal effects, barnyard grass ([2]; 20 g/a): 5
- Herbicidal effects, barnyard grass ([2]; 40 g/a): 5
- Herbicidal effect, common purslane ([3]; 10 g./a.): 4
- Herbicidal effect, common purslane ([3]; 20 g./a.): 4
- Herbicidal effect, common purslane ([3]; 40 g./a.): 5
- Herbicidal effect, common lambsquarter ([4]; 10 g./a.): 4
- Herbicidal effect, common lambsquarter ([4]; 20 g./a.): 4
- Herbicidal effect, common lambsquarter ([4]; 40 g./a.): 5
- Herbicidal effect, redroot pigweed ([5]; 10 g./a.): 4
- Herbicidal effect, redroot pigweed ([5]; 20 g./a.): 5
- Herbicidal effect, redroot pigweed ([5]; 40 g./a.): 5
- Herbicidal effects, broad-leaved weeds ([6]; 10 g/a): 5
- Herbicidal effects, broad-leaved weeds ([6]; 20 g/a): 5
- Herbicidal effects, broad-leaved weeds ([6]; 40 g/a): 5
- Herbicidal effect, barnyard grass ([7]; 10 g./a.): 5
- Herbicidal effect, barnyard grass ([7]; 20 g./a.): 5
- Herbicidal effect, barnyard grass ([7]; 40 g./a.): 5
- Herbicidal effect, radish (radish; 10 g./a.): 0
- Herbicidal effect, radish (radish; 20 g./a.): 0
- Herbicidal effect, radish (radish; 40 g./a.): 0

Structure (SMILES): CCOP(=O)(SCC(=O)N1CCCC(C)C1)SC(C)C (stereo not drawn) [Compound 22]
- Phytotoxicity on rice (rice; 10 g/a): 0
- Phytotoxicity on rice (rice; 20 g/a): 0
- Phytotoxicity on rice (rice; 40 g/a): 0
- Herbicidal effect, large crabgrass ([1]; 10 g./a.): 4
- Herbicidal effect, large crabgrass ([1]; 20 g./a.): 5
- Herbicidal effect, large crabgrass ([1]; 40 g./a.): 5
- Herbicidal effects, barnyard grass ([2]; 10 g/a): 5
- Herbicidal effects, barnyard grass ([2]; 20 g/a): 5
- Herbicidal effects, barnyard grass ([2]; 40 g/a): 5
- Herbicidal effect, common purslane ([3]; 10 g./a.): 4
- Herbicidal effect, common purslane ([3]; 20 g./a.): 4
- Herbicidal effect, common purslane ([3]; 40 g./a.): 4
- Herbicidal effect, common lambsquarter ([4]; 10 g./a.): 4
- Herbicidal effect, common lambsquarter ([4]; 20 g./a.): 4
- Herbicidal effect, common lambsquarter ([4]; 40 g./a.): 5
- Herbicidal effect, redroot pigweed ([5]; 10 g./a.): 3
- Herbicidal effect, redroot pigweed ([5]; 20 g./a.): 4
- Herbicidal effect, redroot pigweed ([5]; 40 g./a.): 5
- Herbicidal effects, broad-leaved weeds ([6]; 10 g/a): 5
- Herbicidal effects, broad-leaved weeds ([6]; 20 g/a): 5
- Herbicidal effects, broad-leaved weeds ([6]; 40 g/a): 5
- Herbicidal effect, barnyard grass ([7]; 10 g./a.): 4
- Herbicidal effect, barnyard grass ([7]; 20 g./a.): 5
- Herbicidal effect, barnyard grass ([7]; 40 g./a.): 5
- Herbicidal effect, radish (radish; 10 g./a.): 0
- Herbicidal effect, radish (radish; 20 g./a.): 0
- Herbicidal effect, radish (radish; 40 g./a.): 0

Structure (SMILES): CCOP(=O)(SCC(=O)N1CCC(C)CC1)SC(C)CC (stereo not drawn) [Compound 27]
- Phytotoxicity on rice (rice; 10 g/a): 0
- Phytotoxicity on rice (rice; 20 g/a): 0
- Phytotoxicity on rice (rice; 40 g/a): 0
- Herbicidal effect, large crabgrass ([1]; 10 g./a.): 5
- Herbicidal effect, large crabgrass ([1]; 20 g./a.): 5
- Herbicidal effect, large crabgrass ([1]; 40 g./a.): 5
- Herbicidal effects, barnyard grass ([2]; 10 g/a): 5
- Herbicidal effects, barnyard grass ([2]; 20 g/a): 5
- Herbicidal effects, barnyard grass ([2]; 40 g/a): 5
- Herbicidal effect, common purslane ([3]; 10 g./a.): 4
- Herbicidal effect, common purslane ([3]; 20 g./a.): 4
- Herbicidal effect, common purslane ([3]; 40 g./a.): 4
- Herbicidal effect, common lambsquarter ([4]; 10 g./a.): 4
- Herbicidal effect, common lambsquarter ([4]; 20 g./a.): 4
- Herbicidal effect, common lambsquarter ([4]; 40 g./a.): 5
- Herbicidal effect, redroot pigweed ([5]; 10 g./a.): 3
- Herbicidal effect, redroot pigweed ([5]; 20 g./a.): 4
- Herbicidal effect, redroot pigweed ([5]; 40 g./a.): 5
- Herbicidal effects, broad-leaved weeds ([6]; 10 g/a): 5
- Herbicidal effects, broad-leaved weeds ([6]; 20 g/a): 5
- Herbicidal effects, broad-leaved weeds ([6]; 40 g/a): 5
- Herbicidal effect, barnyard grass ([7]; 10 g./a.): 4
- Herbicidal effect, barnyard grass ([7]; 20 g./a.): 5
- Herbicidal effect, barnyard grass ([7]; 40 g./a.): 5
- Herbicidal effect, radish (radish; 10 g./a.): 0
- Herbicidal effect, radish (radish; 20 g./a.): 0
- Herbicidal effect, radish (radish; 40 g./a.): 0
